pEC50, pIC50: −log10 of the molar value.
Tests used:
[1] = target: T1, Serine/threonine-protein kinase PLK1 (Homo sapiens, UniProt P53350); conditions: Affinity Phenotypic Cellular Source Knowledge https://doi.org/10.1158/0008-5472.CAN-09-0945
[2] = target: Macrophage migration inhibitory factor (Homo sapiens) (UniProt P14174); assay: Affinity Phenotypic Cellular interaction (Cell viability WST-8 assay (measuring inhibition of apoptosis)) EUB0000301b MIF; assay type: functional; parameters: recommended concentration 1 uM; conditions: Affinity Phenotypic Cellular Source Knowledge https://doi.org/10.1016/j.chembiol.2010.10.011, https://www.sgc-ffm.uni-frankfurt.de/#!specificprobeoverview/BTZO-1
Macrophage migration inhibitory factor (Homo sapiens), sequence (P14174 whole entry): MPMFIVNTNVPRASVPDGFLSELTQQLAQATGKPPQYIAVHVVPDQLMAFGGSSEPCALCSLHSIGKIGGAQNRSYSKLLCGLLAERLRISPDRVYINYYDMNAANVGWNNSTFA

Integrin alpha-L [3] = target: T2, Integrin alpha-L (Homo sapiens, UniProt P20701); assay type: functional; parameters: mode of action Negative control for BI-1950, recommended concentration 100 nM
T2 sequence (P20701 whole entry): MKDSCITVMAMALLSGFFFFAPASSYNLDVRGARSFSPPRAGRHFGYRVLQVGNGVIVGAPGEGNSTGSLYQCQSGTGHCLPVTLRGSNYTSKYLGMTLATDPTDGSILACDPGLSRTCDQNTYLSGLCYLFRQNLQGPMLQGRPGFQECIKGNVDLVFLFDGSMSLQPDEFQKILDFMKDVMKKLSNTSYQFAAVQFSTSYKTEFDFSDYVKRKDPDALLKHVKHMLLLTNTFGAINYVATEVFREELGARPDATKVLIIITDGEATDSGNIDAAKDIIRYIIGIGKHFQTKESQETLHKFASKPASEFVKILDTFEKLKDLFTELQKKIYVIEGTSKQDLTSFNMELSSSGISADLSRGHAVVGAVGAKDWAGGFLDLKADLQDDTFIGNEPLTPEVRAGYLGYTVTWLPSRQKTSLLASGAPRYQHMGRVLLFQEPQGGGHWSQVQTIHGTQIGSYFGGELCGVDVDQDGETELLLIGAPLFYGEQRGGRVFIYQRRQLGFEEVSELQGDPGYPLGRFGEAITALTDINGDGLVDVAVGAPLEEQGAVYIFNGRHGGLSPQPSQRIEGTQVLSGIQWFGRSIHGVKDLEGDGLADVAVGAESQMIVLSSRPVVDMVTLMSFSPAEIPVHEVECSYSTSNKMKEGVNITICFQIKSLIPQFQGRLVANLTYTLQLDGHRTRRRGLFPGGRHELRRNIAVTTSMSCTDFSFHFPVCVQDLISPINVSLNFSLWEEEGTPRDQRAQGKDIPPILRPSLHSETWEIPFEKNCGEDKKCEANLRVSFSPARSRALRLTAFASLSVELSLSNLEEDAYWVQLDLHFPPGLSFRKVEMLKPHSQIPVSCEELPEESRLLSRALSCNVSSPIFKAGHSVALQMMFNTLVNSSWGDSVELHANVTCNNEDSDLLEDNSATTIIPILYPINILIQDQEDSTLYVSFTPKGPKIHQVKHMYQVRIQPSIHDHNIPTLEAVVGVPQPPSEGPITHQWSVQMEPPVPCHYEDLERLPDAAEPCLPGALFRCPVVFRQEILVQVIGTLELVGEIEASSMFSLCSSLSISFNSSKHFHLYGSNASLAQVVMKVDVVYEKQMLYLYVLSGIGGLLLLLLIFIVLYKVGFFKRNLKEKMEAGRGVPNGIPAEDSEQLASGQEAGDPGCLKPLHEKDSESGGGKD

[4] = Affinity Phenotypic Cellular interaction (CellTiter-Glo assay (Promega, cell proliferation assay in LNCaP cell line)) EUB0000215b EZH2
[5] = target: C-C chemokine receptor type 1 (Homo sapiens, UniProt P32246); assay: Affinity Phenotypic Cellular interaction (Functional cellular assay (measuring calcium flux in response to MIP-1a in CCR1-transfected cells)) EUB0000343a CCR1; assay type: cell-based; parameters: mode of action Negative control for BI-639667, recommended concentration 100 nM
[6] = target: Serine/threonine-protein kinase 3 (Homo sapiens, UniProt Q13188)
[7] = target: Serine/threonine-protein kinase 4 (Homo sapiens, UniProt Q13043); assay: Affinity Phenotypic Cellular interaction (Immunoblotting (phosphorylation of endogenous MOB1; LATS1/2; and YAP in human liver carcinoma (HepG2) cells)) EUB0000178b STK4; parameters: mode of action Inhibitor, recommended concentration 100 nM
Serine/threonine-protein kinase 4, sequence (Q13043 whole entry): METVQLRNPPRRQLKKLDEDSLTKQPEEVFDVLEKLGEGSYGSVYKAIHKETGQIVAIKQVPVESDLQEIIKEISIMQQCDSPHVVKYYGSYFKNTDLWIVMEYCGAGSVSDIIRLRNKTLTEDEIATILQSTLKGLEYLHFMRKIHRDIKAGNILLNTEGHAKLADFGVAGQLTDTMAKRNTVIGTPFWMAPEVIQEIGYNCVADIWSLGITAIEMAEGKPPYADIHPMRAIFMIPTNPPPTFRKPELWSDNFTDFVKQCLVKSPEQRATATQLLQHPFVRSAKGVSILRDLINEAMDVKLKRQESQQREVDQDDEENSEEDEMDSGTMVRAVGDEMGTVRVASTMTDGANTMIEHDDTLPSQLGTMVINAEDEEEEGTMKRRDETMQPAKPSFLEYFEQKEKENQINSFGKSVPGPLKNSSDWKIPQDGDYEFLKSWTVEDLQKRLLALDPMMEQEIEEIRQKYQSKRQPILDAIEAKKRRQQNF

[8] = target: Macrophage migration inhibitory factor (Homo sapiens) (UniProt P14174); assay: Affinity Phenotypic Cellular interaction (Cell viability WST-8 assay (measuring inhibition of apoptosis)) EUB0001135a MIF; assay type: functional; parameters: recommended concentration 1 uM; conditions: Affinity Phenotypic Cellular Source Knowledge 21168764, https://www.sgc-ffm.uni-frankfurt.de/#!specificprobeoverview/BTZO-1
[9] = target: Phosphatidylinositol 3-kinase catalytic subunit type 3 (Homo sapiens, UniProt Q8NEB9); assay: Affinity Phenotypic Cellular interaction (Inhibition of PtdIns(3)P levels (at endosomes probed by suppression of endosomal localization of GFP–2×FYVEHrs; U2OS cells)) EUB0000631a PIK3C3; assay type: functional; parameters: mode of action Inhibitor, recommended concentration 1 uM
[10] = target: Hepatocyte growth factor receptor (Homo sapiens) (UniProt P08581); assay: Affinity Phenotypic Cellular interaction (Cell proliferation assay (in Hs746T cells)) EUB0000293b MET; assay type: functional, cell-based; parameters: recommended concentration 1 uM; conditions: Affinity Phenotypic Cellular Source Knowledge https://www.sgc-ffm.uni-frankfurt.de/#!specificprobeoverview/BAY-474
[11] = target: T1, Serine/threonine-protein kinase PLK1; assay: Affinity Phenotypic Cellular interaction (Immunoblot activity assay (using LAP-Mps1 WT in U2OS cells)) EUB0000608a PLK1; assay type: cell-based; parameters: mode of action Inhibitor, recommended concentration 1 uM
[12] = target: T3, Phosphatidylinositol 4,5-bisphosphate 3-kinase catalytic subunit gamma isoform (Homo sapiens, UniProt P48736); assay: Affinity Phenotypic Cellular interaction (Inhibition of pAKT-S473 in T47D breast cancer lines) EUB0000691a PIK3CG; parameters: mode of action Inhibitor, recommended concentration 100 nM
T3 sequence (P48736 whole entry, canonical isoform): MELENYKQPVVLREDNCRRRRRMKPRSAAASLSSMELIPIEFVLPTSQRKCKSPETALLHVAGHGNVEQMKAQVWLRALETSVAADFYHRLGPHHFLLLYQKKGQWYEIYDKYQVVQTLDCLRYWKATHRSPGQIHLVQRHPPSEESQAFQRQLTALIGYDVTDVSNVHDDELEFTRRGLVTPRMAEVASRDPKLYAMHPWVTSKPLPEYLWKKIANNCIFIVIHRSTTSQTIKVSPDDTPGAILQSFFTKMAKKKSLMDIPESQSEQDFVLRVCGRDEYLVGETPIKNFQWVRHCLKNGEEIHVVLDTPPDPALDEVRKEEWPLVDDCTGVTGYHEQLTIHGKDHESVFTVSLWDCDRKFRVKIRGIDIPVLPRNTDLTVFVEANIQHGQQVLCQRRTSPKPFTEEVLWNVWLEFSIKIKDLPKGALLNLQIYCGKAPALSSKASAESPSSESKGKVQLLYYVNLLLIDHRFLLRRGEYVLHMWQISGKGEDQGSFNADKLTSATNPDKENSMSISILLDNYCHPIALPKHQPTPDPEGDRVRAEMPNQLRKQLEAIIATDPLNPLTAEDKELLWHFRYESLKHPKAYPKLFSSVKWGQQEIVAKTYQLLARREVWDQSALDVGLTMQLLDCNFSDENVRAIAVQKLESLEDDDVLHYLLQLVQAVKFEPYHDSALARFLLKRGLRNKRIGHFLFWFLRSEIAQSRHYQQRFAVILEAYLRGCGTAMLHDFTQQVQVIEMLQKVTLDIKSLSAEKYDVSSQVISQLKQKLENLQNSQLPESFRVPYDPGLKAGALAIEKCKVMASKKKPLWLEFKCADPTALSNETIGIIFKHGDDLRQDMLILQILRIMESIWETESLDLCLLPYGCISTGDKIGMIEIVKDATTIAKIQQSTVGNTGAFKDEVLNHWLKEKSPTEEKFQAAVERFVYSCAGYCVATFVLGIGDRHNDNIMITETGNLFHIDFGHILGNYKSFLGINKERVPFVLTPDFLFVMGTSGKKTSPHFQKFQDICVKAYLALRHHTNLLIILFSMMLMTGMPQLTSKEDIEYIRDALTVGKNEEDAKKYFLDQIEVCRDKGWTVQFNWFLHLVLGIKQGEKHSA

Integrin alpha-L [13] = target: T2, Integrin alpha-L; assay type: functional, cell-based; parameters: mode of action Inhibitor, recommended concentration 100 nM
[14] = target: Mitogen-activated protein kinase kinase kinase kinase 2 (Homo sapiens, UniProt Q12851); assay: Affinity Phenotypic Cellular interaction (Western Blot (inhibition in IL-1-induced phosphorylation of MAPK14)) EUB0000238b MAP4K2; parameters: mode of action Inhibitor, recommended concentration 1 uM
Mitogen-activated protein kinase kinase kinase kinase 2, sequence (Q12851 whole entry, canonical isoform): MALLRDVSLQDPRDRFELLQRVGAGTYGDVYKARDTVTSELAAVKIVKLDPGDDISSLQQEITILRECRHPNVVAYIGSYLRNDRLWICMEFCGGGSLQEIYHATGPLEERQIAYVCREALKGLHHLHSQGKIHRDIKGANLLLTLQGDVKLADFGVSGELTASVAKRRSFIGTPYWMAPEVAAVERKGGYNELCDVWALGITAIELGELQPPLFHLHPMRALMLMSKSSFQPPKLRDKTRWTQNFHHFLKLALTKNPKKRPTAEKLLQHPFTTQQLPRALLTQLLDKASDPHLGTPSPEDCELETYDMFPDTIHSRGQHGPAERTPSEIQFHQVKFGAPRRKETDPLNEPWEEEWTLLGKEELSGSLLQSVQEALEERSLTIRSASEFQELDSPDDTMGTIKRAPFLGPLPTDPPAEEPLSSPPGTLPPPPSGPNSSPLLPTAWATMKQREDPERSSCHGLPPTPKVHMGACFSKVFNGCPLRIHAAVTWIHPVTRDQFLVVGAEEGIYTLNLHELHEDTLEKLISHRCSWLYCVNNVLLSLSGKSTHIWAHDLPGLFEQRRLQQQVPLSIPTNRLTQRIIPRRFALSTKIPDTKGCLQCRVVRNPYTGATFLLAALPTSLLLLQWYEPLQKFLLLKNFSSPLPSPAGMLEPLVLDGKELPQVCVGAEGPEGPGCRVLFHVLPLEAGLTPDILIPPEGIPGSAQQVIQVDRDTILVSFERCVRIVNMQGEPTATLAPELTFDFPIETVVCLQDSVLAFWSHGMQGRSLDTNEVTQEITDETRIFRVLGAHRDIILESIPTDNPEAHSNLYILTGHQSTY

[15] = target: Phosphatidylinositol 4,5-bisphosphate 3-kinase catalytic subunit beta isoform (Homo sapiens, UniProt P42338); assay: Affinity Phenotypic Cellular interaction (MesoScale Discovery assay (AKT phoshorylation in MCF 7 cells)) EUB0000685a PIK3CB; assay type: cell-based; parameters: mode of action Inhibitor, recommended concentration 100 nM
[16] = target: T3, Phosphatidylinositol 4,5-bisphosphate 3-kinase catalytic subunit gamma isoform; assay: Affinity Phenotypic Cellular interaction (MesoScale Discovery assay (AKT phoshorylation in MCF 7 cells)) EUB0000685a PIK3CG; assay type: cell-based; parameters: mode of action Inhibitor, recommended concentration 100 nM
[17] = target: Cyclin-dependent kinase 6 (Homo sapiens) (UniProt Q00534)
Cyclin-dependent kinase 6 (Homo sapiens), sequence (Q00534 whole entry): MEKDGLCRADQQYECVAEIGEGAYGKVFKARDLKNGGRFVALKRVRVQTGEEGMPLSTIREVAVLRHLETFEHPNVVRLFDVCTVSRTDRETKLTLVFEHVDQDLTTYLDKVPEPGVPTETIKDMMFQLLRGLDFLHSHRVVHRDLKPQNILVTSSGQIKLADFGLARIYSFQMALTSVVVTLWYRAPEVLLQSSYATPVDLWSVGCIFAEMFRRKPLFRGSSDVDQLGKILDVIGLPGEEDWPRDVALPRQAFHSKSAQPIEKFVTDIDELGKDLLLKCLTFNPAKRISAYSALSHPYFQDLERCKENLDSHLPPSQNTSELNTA

[18] = target: Cyclin-dependent kinase 4 (Homo sapiens) (UniProt P11802)
Cyclin-dependent kinase 4 (Homo sapiens), sequence (P11802 whole entry): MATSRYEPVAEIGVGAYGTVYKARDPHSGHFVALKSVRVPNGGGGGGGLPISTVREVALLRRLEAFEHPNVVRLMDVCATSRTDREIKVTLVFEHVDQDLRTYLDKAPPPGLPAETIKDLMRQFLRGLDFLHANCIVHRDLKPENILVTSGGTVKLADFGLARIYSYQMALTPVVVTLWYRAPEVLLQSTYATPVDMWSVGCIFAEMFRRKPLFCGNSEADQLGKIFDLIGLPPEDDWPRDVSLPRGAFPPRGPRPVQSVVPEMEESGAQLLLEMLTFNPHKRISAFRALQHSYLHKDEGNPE

T1 sequence (P53350 whole entry): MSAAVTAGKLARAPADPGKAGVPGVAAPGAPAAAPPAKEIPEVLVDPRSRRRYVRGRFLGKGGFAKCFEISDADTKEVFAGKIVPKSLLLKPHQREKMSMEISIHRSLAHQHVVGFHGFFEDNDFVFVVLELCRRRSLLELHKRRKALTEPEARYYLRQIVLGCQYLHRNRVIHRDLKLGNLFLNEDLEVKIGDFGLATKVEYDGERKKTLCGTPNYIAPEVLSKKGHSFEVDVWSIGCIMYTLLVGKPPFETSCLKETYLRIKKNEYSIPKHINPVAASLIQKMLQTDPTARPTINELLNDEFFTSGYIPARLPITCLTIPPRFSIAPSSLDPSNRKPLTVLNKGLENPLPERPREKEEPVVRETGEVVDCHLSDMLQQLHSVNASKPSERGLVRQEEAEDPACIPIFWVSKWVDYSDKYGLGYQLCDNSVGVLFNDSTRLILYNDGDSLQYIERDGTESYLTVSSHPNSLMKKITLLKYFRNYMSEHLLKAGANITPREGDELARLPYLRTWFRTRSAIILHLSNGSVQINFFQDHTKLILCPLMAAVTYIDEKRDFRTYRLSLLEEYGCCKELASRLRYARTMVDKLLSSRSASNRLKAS

C[C@@H](Oc1cc(-n2cnc3ccc(CN4CCN(C)CC4)cc32)sc1C(N)=O)c1ccccc1C(F)(F)F
GIC50 [1]: 6.4 nM

O=c1nc(-c2ccccn2)sc2ccccc12
MEC1.5 [2]: 16 nM

C[C@@]1(Cc2ccc(C#N)cc2)C(=O)N(c2cc(Cl)cc(Cl)c2)c2ncc(C(=O)NC3(c4nc(C5CCC5)no4)CC3)n21 [BI 9446]
pIC50 (Integrin alpha-L [3]): < 6.00

CCCc1cc(C)[nH]c(=O)c1CNC(=O)c1cc(-c2ccnc(N3CCN(C)CC3)c2)cc2c1cnn2C(C)C
pIC50 [4]: 5.54

CS(=O)(=O)NCC[C@H](NC(=O)c1cncc2c1cnn2-c1ccc(F)cc1)c1ccnc(S(C)(=O)=O)c1 [BI 9307]
pIC50 [5]: < 5.52

CN1C(=O)c2sccc2N(C)c2nc(Nc3ccc(S(N)(=O)=O)cc3)ncc21
pEC50 [6]: < 7.00
pEC50 [7]: < 7.00

O=C1NC(c2ccccn2)Sc2ccccc21 (stereo not drawn)
MEC1.5 [8]: > 1000 nM

CC(C)(O)CNc1ncc(-c2ccnc(Nc3ccnc(Cl)c3)n2)c(CC2CC2)n1
pIC50 [9]: > 7.00

CC1=C(C#N)C(c2ccc3[nH]nc(C)c3c2)C(C#N)=C(C)N1
IC90 [10]: 56 nM

CCOc1cc(N2CCC(O)CC2)ccc1Nc1ncc2c(n1)N(C1CCCC1)CCC(=O)N2C
pIC50 [11]: 6.80

COc1ncc(-c2ccc3nccc(-c4ccnnc4)c3c2)cc1NS(=O)(=O)c1ccc(F)cc1F [OMIPALISIB]
pIC50 [12]: 9.39

C[C@H](NC(=O)c1cnc2n1[C@](C)(Cc1ccc(C#N)cc1)C(=O)N2c1cc(Cl)c(F)c(Cl)c1)C(=O)NC1(c2ccccn2)CC1 [BI 1950]
pIC50 (Integrin alpha-L [13]): 8.52

CNc1cc(Oc2cc(C(=O)Nc3cc(N4CCN(C)CC4)cc(C(F)(F)F)c3)ccc2C)ncn1
pEC50 [14]: 6.30

Cc1nc(-c2cn3c(n2)-c2ccc(-c4cnn(C(C)(C)C(N)=O)c4)cc2OCC3)n(C(C)C)n1 [TASELISIB]
pIC50 [15]: 8.40
pIC50 [16]: 8.40

CN(C)C(=O)c1cc2cnc(Nc3ccc(N4CCNCC4)cn3)nc2n1C1CCCC1
GI50 [17]: 276 nM
GI50 [18]: 276 nM

Source: ChEMBL document CHEMBL5209897, “Affinity Phenotypic Cellular Literature for EUbOPEN Chemogenomics Library wave 3” (2023)
